Reference: patent publication US20250052749A1, “SYSTEMS AND METHODS OF SELECTING COMPOUNDS THAT INDUCE CONFORMATIONAL CHANGES IN MUTANT CEREBLON” (BRISTOL-MYERS SQUIBB COMPANY, priority 2021, published 2025)
“Also recorded” adds a separate entry of the source.

Assays:
Cereblon-DDB1 [1] = target: T1, Cereblon-DDB1 (Homo sapiens, UniProt Q96SW2); experiment: cryo-EM population analysis of open/closed Cereblon conformers with saturating IMiD/CELMoD; parameters: human cereblon (amino acids 5-442); ZZ-domain-6×His-thrombin site (cleaved yes); made in house; host or cells: SF9 insect cells; conditions: wild-type Cereblon-DDB1, saturating amount of drug, cryo-EM single-particle analysis
Description: (§1) Frozen 20 mg/mL cereblon-DDB1 complexes were thawed and diluted to 5 mg/mL with buffer containing 20 mM HEPES pH 7, 150 mM NaCl, 3 mM TCEP. Immediately prior to plunge-freezing in liquid ethane, samples are diluted 10-fold in the same buffer supplemented with 0.011% Lauryl Maltose-Neopentyl Glycol (LMNG) to limit complex dissociation. Quantifoil 300 mesh R1.2/1.3 UltrAuFoil Holey Gold Films were plasma cleaned for 7 seconds using a Solarus plasma cleaner (Gatan, Inc.) with a 75% nitrogen, 25% oxygen atmosphere at 15 W. Immediately prior to sample application, grids are further pre-treated with 4 μL solution containing 10 μM cereblon binding-deficient mutant Ikaros residues 140-196 Q146A G151N and blotted from behind with torn Whatman 1 filter paper. 4 μL dilute sample is applied, excess sample was blotted away for 4 s and vitrified by manual plunge freezing into a liquid ethane pool cooled by liquid nitrogen using a manual plunger in a 4° C. cold room >95% humidity. Samples containing IMiDs are prepared the same way, with 10× molar equivalent of drug yielding a buffer concentration 20 mM HEPES pH 7, 150 mM NaCl, 3 mM TCEP, <1% DMSO mixed 2 minutes prior to dilution and application to the grid. Similarly, Ikaros samples are prepared by incubation of 2-fold molar excess Ikaros 2 minutes prior to dilution and application to the grid. […]

Ikaros/Cereblon/DDB1 = target: T2, Ikaros/Cereblon/DDB1 (Homo sapiens, UniProt Q96SW2); experiment: cryo-EM of drug-mediated Ikaros recruitment to Cereblon-DDB1; conditions: wild-type Cereblon/DDB1, FIG. 4C; result in words
T2 construct: human cereblon (amino acids 5-442); ZZ-domain-6×His-thrombin site (cleaved yes); made in house; host or cells: SF9 insect cells (CRBN-DDB1); E. coli BL21 (DE3) Star (Ikaros)
Description: as §1

Cereblon-DDB1 [2] = target: T1, Cereblon-DDB1; experiment: hydrogen-deuterium exchange mass spectrometry (HDX-MS) of Cereblon-DDB1 peptides; parameters: made in house; conditions: compared with unliganded DDB1-Cereblon; result in words
Description: For peptide identification, differential HDX-MS experiments were conducted as previously described with a few modifications (Chalmers, M. J., et al. (2006). Probing protein ligand interactions by automated hydrogen/deuterium exchange mass spectrometry. Analytical Chemistry, 78(4), 1005-1014). Peptides were identified using tandem MS (MS/MS) with an Orbitrap mass spectrometer (Q Exactive, ThermoFisher). Product ion spectra were acquired in data-dependent mode with the top five most abundant ions selected for the product ion analysis per scan event. The MS/MS data files were submitted to Mascot (Matrix Science) for peptide identification. […] The MASCOT search was repeated against a decoy (reverse) sequence and ambiguous identifications were ruled out and not included in the HDX peptide set. […]
Mass spectrometric data were acquired using an Orbitrap mass spectrometer (Exactive, ThermoFisher). […] The intensity weighted mean m/z centroid value of each peptide envelope was calculated and subsequently converted into a percentage of deuterium incorporation. […] Statistical significance for the differential HDX data is determined by an unpaired t-test for each time point, a procedure that is integrated into the HDX Workbench software (Pascal, B. D., et al. (2012). HDX workbench: software for the analysis of H/D exchange MS data. Journal of the American Society for Mass Spectrometry, 23(9), 1512-1521.). […]

Cereblon = Cereblon (Homo sapiens, UniProt Q96SW2); experiment: Cereblon binding affinity; conditions: CELMoD affinity for Cereblon compared with Pomalidomide/IMiD
P98A Cereblon-DDB1 = target: T3, P98A Cereblon-DDB1 (Homo sapiens, UniProt Q96SW2, P98A); experiment: cryo-EM of P98A mutant Cereblon saturated with drug along with Ikaros; conditions: for conformation of P98A Cereblon in presence of drug (open/closed) / recruitment of Ikaros Zf 2-3 to P98A mutant Cereblon: result in words; for recruitment of Ikaros Zf 2-3 to P98A mutant Cereblon: FIG. 9
T3 construct: human cereblon (amino acids 5-442); ZZ-domain-6×His-thrombin site (cleaved yes); made in house; host or cells: SF9 insect cells (CRBN-DDB1, by 'as before'); E. coli BL21 (DE3) Star (Ikaros)
Description: Frozen 20 mg/mL cereblon-DDB1 complexes were thawed and diluted to 5 mg/mL with buffer containing 20 mM HEPES pH 7, 150 mM NaCl, 3 mM TCEP. Immediately prior to plunge-freezing in liquid ethane, samples are diluted 10-fold in the same buffer supplemented with 0.011% Lauryl Maltose-Neopentyl Glycol (LMNG) to limit complex dissociation. Quantifoil 300 mesh R1.2/1.3 UltrAuFoil Holey Gold Films were plasma cleaned for 7 seconds using a Solarus plasma cleaner (Gatan, Inc.) with a 75% nitrogen, 25% oxygen atmosphere at 15 W. Immediately prior to sample application, grids are further pre-treated with 4 μL solution containing 10 μM cereblon binding-deficient mutant Ikaros residues 140-196 Q146A G151N and blotted from behind with torn Whatman 1 filter paper. 4 μL dilute sample is applied, excess sample was blotted away for 4 s and vitrified by manual plunge freezing into a liquid ethane pool cooled by liquid nitrogen using a manual plunger in a 4° C. cold room >95% humidity. Samples containing IMiDs are prepared the same way, with 10× molar equivalent of drug yielding a buffer concentration 20 mM HEPES pH 7, 150 mM NaCl, 3 mM TCEP, <1% DMSO mixed 2 minutes prior to dilution and application to the grid. Similarly, Ikaros samples are prepared by incubation of 2-fold molar excess Ikaros 2 minutes prior to dilution and application to the grid.
Cryo-EM data were collected on a Thermo-Fisher Talos Arctica transmission electron microscope operating at […] using parallel illumination conditions. Micrographs were acquired using a Gatan K2 Summit direct electron detector, operated in electron counting mode applying a total electron exposure of […]. The Leginon data collection software was used to collect 2912 micrographs at 36,000× nominal magnification (1.15 Å/pixel at the specimen level) with a nominal defocus set to −1.5 μm. Variation from the nominally set defocus due to a ˜5% tilt in the stage gave rise to a defocus range (this tilt was not intentional and required service to correct). Stage movement was used to target the center of sixteen 1.2 μm holes for focusing, and an image shift was used to acquire high magnification images in the center of each of the sixteen targeted holes.

[3] = P98A mutant Cereblon, saturated with drug along with Ikaros

Row | Structure (SMILES) | particles adopting CRBN^closed conformation (Cereblon-DDB1 [1]) [%] | recruitment of Ikaros ZF1-2-3 to CRBN^closed (Ikaros/Cereblon/DDB1) | change in solvent accessibility (HDX differential) upon addition of drug (Cereblon-DDB1 [2]) | improved affinity (Cereblon) | particles adopting CRBN^closed conformation with Ikaros bound (P98A Cereblon-DDB1; [3]) [%] | conformation of P98A Cereblon in presence of drug (open/closed) (P98A Cereblon-DDB1; [3]) | recruitment of Ikaros Zf 2-3 to P98A mutant Cereblon (P98A Cereblon-DDB1)
1 | O=C1CC[C@H](N2Cc3c(OCc4ccc(CN5CCOCC5)cc4)cccc3C2=O)C(=O)N1 [Compound 1, (S)-3-(4-((4-(morpholinomethyl)benzyl)oxy)-1-oxoisoindolin-2-yl)piperidine-2,6-dione] | ~50 | is recruited to CRBN^closed | affected solvency for both the sensor loop and residues within the Lon domain and HB | approximately 20 fold | – | – | –
2 | N#Cc1ccc(N2CCN(Cc3ccc(COc4cccc5c4CN([C@H]4CCC(=O)NC4=O)C5=O)cc3)CC2)c(F)c1 [Compound 2, (S)-4-(4-(4-(((2-(2,6-dioxopiperidin-3-yl)-1-oxoisoindolin-4-yl)oxy)methyl)benzyl)piperazin-1-yl)-3-fluorobenzonitrile] | – | – | – | – | 25 | can overcome this mutation | sufficiently recruits Ikaros Zf 2-3
3 | Nc1cccc2c1C(=O)N(C1CCC(=O)NC1=O)C2=O (stereo not drawn) [Pomalidomide, reference compound] | – | – | – | – | – | exclusively substrate-free open conformers; also recorded: cannot close | insufficient
